Experimental data as given in the supplement of paper PMC8882468.

Tests used:
Assay in all cases: CTG-3D luminescence at 96 h relative to day-0 seeding control (ratio to day 0); higher = more growth / less cytotoxicity; PDxO 3D drug screen, 96 h, CTG-3D normalised to day-0 seeding control.
[1] = tested on: HCI-016 (organoid from a triple-negative breast cancer xenograft)
[2] = tested on: HCI-027 (organoid from a triple-negative breast cancer xenograft)
[3] = tested on: HCI-025 (organoid from a breast cancer xenograft)
[4] = tested on: HCI-024 (organoid from a breast cancer xenograft)
[5] = tested on: HCI-003.E2 (organoid from an ER-positive breast cancer xenograft)

CN(Cc1cnc2nc(N)nc(N)c2n1)c1ccc(C(=O)N[C@@H](CCC(=O)O)C(=O)O)cc1 [methotrexate]
CTG-3D luminescence at 96 h
Conditions	12.5 pM	0.00025 µM	0.005 µM	0.1 µM	1 µM	10 µM	100 µM	625 fM
[1], days in culture: 153	3.33	1.65	2.64	1.65	1.9	2.08	1.39	2.86
[1], days in culture: 172	2.17	1.68	1.56	1.51	1.49	1.25	1.41	1.71
[1], days in culture: 190	1.69	1.3	1.7	0.906	1.08	1.21	1.52	0.969
[1], days in culture: 199	1.57	1.47	1.56	1.47	1.53	1.37	1.26	1.73
[2], days in culture: 176	2.07	1.47	2.43	1.51	1.97	1.55	1.68	1.28
[2], days in culture: 194	1.69	1.38	1.57	1.17	1.04	1.07	0.572	1.44
[2], days in culture: 201	1.69	1.66	2.26	1.14	0.939	0.886	0.445	1.25
[3], days in culture: 172	2.75	2.07	3.51	1.47	1.98	1.22	1.02	2.55
[3], days in culture: 209	1.86	1.56	2.06	0.982	1.3	0.947	0.76	1.49
[3], days in culture: 218	1.83	2	2	1.06	0.978	1.26	0.754	1.76
[4], days in culture: 105	1.92	1.49	1.24	1.99	1.64	2	1.44	1.83
[4], days in culture: 122	1.69	2.22	2.07	2	2.13	2.46	1.82	2.88
[4], days in culture: 163	1.9	2.08	1.83	2.4	2.14	2.03	1.74	2.12

[5]
Conditions	CTG-3D luminescence at 96 h
12.5 pM	2.32
0.00025 µM	2.47
0.005 µM	2.09
0.1 µM	2.12
1 µM	1.83
10 µM	1.9
100 µM	1.64
625 fM	2.12

COc1cccc2c1C(=O)c1c(O)c3c(c(O)c1C2=O)C[C@@](O)(C(=O)CO)C[C@@H]3O[C@H]1C[C@H](N)[C@H](O)[C@H](C)O1 [doxorubicin]
CTG-3D luminescence at 96 h
Conditions	12.5 pM	0.00025 µM	0.005 µM	0.1 µM	1 µM	10 µM	100 µM	625 fM
[1], days in culture: 153	2.98	1.26	2.02	0.665	0.19	0.0767	0.0122	2.51
[1], days in culture: 172	2.04	1.45	1.73	1.29	0.194	0.0836	0.0359	1.97
[1], days in culture: 190	1.66	1.38	1.27	0.803	0.316	0.118	0.0242	1.26
[1], days in culture: 199	1.35	1.52	1.53	1.33	0.159	0.232	0.0264	1.7
[2], days in culture: 176	2.14	1.93	1.87	0.162	0.0301	0.0198	0.0148	1.53
[2], days in culture: 194	1.83	1.43	1.48	0.308	0.0306	0.0259	0.0261	1.7
[2], days in culture: 201	1.99	2.28	1.79	0.325	0.0185	0.0267	0.0218	2.05
[3], days in culture: 172	2.56	1.67	2.22	1.81	0.663	-0.00377	-0.0121	2.18
[3], days in culture: 209	2.17	2.18	2.33	1.37	0.406	0.0188	-0.00838	1.45
[3], days in culture: 218	1.71	1.89	1.74	1.66	0.23	0.0154	-0.0116	1.66
[4], days in culture: 105	1.87	1.64	1.47	1.53	1.05	0.158	0.154	2.18
[4], days in culture: 122	2.06	2.32	1.72	1.45	1.06	0.153	0.156	2.88
[4], days in culture: 163	1.43	2.44	1.96	2.3	1.38	0.176	0.187	1.44

[5]
Conditions	CTG-3D luminescence at 96 h
12.5 pM	2.13
0.00025 µM	2.46
0.005 µM	2.07
0.1 µM	2.22
1 µM	1.15
10 µM	0.024
100 µM	-0.00504
625 fM	2.13

Nc1ccn([C@@H]2O[C@H](CO)[C@@H](O)C2(F)F)c(=O)n1 [gemcitabine]
CTG-3D luminescence at 96 h
Conditions	12.5 pM	0.00025 µM	0.005 µM	0.1 µM	1 µM	10 µM	100 µM	625 fM
[1], days in culture: 153	2.99	1.91	2.52	0.96	0.509	0.286	0.0753	2.4
[1], days in culture: 172	1.95	1.97	1.64	0.366	0.257	0.0907	0.0466	1.66
[1], days in culture: 190	1.61	1.34	1.52	0.261	0.268	0.122	0.0539	1.21
[1], days in culture: 199	1.57	1.28	1.3	0.174	0.16	0.112	0.0387	1.49
[2], days in culture: 176	2.02	1.16	1.52	0.363	0.366	0.298	0.25	2.36
[2], days in culture: 194	1.78	1.42	0.983	0.145	0.284	0.28	0.115	1.66
[2], days in culture: 201	2.19	1.37	0.658	0.204	0.136	0.21	0.104	2.28
[3], days in culture: 172	3.01	1.72	2.29	0.436	0.742	0.364	0.195	2.47
[3], days in culture: 209	2.06	2.11	1.83	0.884	0.873	0.449	0.155	1.79
[3], days in culture: 218	1.86	2.09	1.77	0.5	0.362	0.365	0.143	1.79
[4], days in culture: 105	1.5	1.57	1.43	0.795	0.966	0.91	0.516	1.82
[4], days in culture: 122	2.2	2.2	1.93	0.864	0.97	1.31	0.459	2.9
[4], days in culture: 163	1.49	1.85	1.78	1.61	1.15	0.775	0.456	2

[5]
Conditions	CTG-3D luminescence at 96 h
12.5 pM	2.3
0.00025 µM	2.24
0.005 µM	1.81
0.1 µM	1.35
1 µM	1.28
10 µM	1.18
100 µM	0.939
625 fM	2.08

CC(C)(C(=O)NCC(F)(F)C(F)(F)F)C(=O)N[C@@H]1C(=O)Nc2ccccc2-c2ccccc21
CTG-3D luminescence at 96 h
Conditions	12.5 pM	0.00025 µM	0.005 µM	0.1 µM	1 µM	10 µM	100 µM	625 fM
[1], days in culture: 153	2.8	1.65	2.24	1.56	1.82	1.88	0.801	2.19
[1], days in culture: 172	2.46	1.82	1.92	1.28	1.18	1.37	0.772	1.91
[1], days in culture: 190	1.8	1.23	1.17	1.04	1.47	1.46	0.817	1.22
[1], days in culture: 199	1.59	1.04	1.35	1.51	1.42	1.67	0.796	1.63
[2], days in culture: 176	2.35	1.45	1.79	0.289	0.192	0.176	0.165	1.96
[2], days in culture: 194	1.64	1.41	1.38	0.35	0.281	0.486	0.484	1.55
[2], days in culture: 201	2.24	1.62	1.57	0.358	0.288	0.407	0.247	1.99
[3], days in culture: 172	2.02	2.24	3.81	2.44	2.2	2.06	0.839	2.75
[3], days in culture: 209	1.5	1.73	1.93	1.61	1.83	2.01	0.831	1.47
[3], days in culture: 218	2.02	1.91	1.95	1.42	1.45	2.15	1.22	2.19
[4], days in culture: 105	1.79	1.33	0.962	1.85	1.67	2.09	1.22	1.91
[4], days in culture: 122	2.28	1.94	1.8	1.67	1.64	2.55	1.21	3.41
[4], days in culture: 163	2.14	2.11	1.38	2.27	2.12	2.52	1.71	2.36

[5]
Conditions	CTG-3D luminescence at 96 h
12.5 pM	2.16
0.00025 µM	2.26
0.005 µM	2.01
0.1 µM	2.28
1 µM	1.96
10 µM	2.11
100 µM	0.942
625 fM	1.86
